Counter-ions that a name gives are not always drawn.
The compounds below were run against T1, NLRP3 (Homo sapiens, UniProt Q96P20) (assay: THP-1 cells pyroptosis assay). Conditions: LPS 1 μg/ml, compound 3 hrs, nigericin 5 μM 1 hr, resazurin readout.
T1 construct: Seed THP-1 cells (25,000 cells/well) containing 1.0 μg/ml LPS in 40 μl of RPMI medium; host or cells: THP-1 cells
T1 sequence (Q96P20 whole entry): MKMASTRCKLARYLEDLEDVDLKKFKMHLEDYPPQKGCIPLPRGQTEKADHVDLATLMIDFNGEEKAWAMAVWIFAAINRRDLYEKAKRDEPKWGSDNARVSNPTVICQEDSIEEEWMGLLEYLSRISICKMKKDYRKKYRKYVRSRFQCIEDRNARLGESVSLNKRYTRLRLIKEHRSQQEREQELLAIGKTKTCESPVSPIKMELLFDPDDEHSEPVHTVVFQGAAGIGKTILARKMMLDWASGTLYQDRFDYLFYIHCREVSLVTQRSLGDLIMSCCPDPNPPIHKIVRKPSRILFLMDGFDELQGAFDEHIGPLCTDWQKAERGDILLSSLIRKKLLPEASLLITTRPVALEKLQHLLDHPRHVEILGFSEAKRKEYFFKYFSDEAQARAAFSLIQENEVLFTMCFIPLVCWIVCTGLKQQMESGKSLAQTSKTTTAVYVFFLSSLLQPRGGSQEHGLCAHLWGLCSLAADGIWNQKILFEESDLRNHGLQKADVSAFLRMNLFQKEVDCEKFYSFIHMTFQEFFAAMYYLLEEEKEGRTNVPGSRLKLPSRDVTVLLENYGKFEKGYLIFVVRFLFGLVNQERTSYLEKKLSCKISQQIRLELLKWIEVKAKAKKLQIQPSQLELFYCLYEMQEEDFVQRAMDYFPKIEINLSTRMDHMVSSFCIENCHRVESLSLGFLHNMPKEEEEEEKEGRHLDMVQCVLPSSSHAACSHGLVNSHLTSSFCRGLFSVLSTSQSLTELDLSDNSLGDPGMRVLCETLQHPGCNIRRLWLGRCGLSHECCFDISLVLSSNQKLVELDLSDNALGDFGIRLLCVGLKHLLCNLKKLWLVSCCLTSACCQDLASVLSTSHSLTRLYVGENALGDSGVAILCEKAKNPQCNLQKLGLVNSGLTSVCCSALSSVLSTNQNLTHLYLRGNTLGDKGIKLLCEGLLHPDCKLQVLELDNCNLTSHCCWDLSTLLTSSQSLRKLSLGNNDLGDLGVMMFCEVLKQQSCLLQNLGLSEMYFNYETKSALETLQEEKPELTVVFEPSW
Format: cell-based
Protocol: THP-1 cells (ATCC #TIB-202) were grown in RPMI containing L-glutamine (Gibco #11835) supplemented with 1 mM sodium pyruvate (Sigma #S8636) and penicillin (100 units/ml)/streptomycin (0.1 mg/ml) (Sigma #P4333) in 10% Fetal Bovine Serum (FBS) (Sigma #F0804). The cells were routinely passaged and grown to confluency (10^6 cells/ml). On the day of the experiment, THP-1 cells were harvested and resuspended into RPMI medium (without FBS). The cells were then counted and viability (>90%) checked by Trypan blue (Sigma #T8154). Appropriate dilutions were made to give a concentration of 625,000 cells/ml. To this diluted cell solution was added LPS (Sigma #L4524) to give a 1 μg/ml Final Assay Concentration (FAC). 40 μl of the final preparation was aliquoted into each well of a 96-well plate. The plate thus prepared was used for compound screening.
The following method step-by-step assay was followed for compound screening. • 1. Seed THP-1 cells (25,000 cells/well) containing 1.0 μg/ml LPS in 40 μl of RPMI medium (without FBS) in 96-well, black walled, clear bottom cell culture plates coated with poly-D-lysine (VWR #734-0317) • 2. Add 5 μl compound (8 points half-log dilution, with 10 μM top dose) or vehicle (DMSO 0.1% FAC) to the appropriate wells • 3. Incubate for 3 hrs at 37° C., 5% CO2 • 4. Add 5 μl nigericin (Sigma #N7143) (FAC 5 μM) to all wells • 5. Incubate for 1 hr at 37° C., 5% CO2 • 6. At the end of the incubation period, spin plates at 300×g for 3 mins and remove supernatant • 7. Then add 50 μl of resazurin (Sigma #R7017)(FAC 100 μM resazurin in RPMI medium without FBS) and incubate plates for a further 1-2 hrs at 37° C. and 5% CO2 • 8. Plates were read in an Envision reader at Ex 560 nm and Em 590 nm • 9. IC50 data is fitted to a non-linear regression equation (log inhibitor vs response-variable slope 4-parameters) 96-well Plate Map
`COc1cc(-c2cc(F)cc(C(C)C)c2CC(=O)NS(=O)(=O)c2ccc3c(c2)C(C)(C)OC3=O)ccn1` [Example 29, N-((3,3-Dimethyl-1-oxo-1,3-dihydroisobenzofuran-5-yl)sulfonyl)-2-(4-fluoro-2-isopropyl-6-(2-methoxypyridin-4-yl)phenyl) acetamide] was tested, and the IC50 was ≤ 5 µM. In the case of `COc1cc(-c2cc(F)cc(C(C)C)c2CC(=O)NS(=O)(=O)c2ccc(C(C)(C)O)c(Cl)c2)ccn1` [Example 98, N-((3-Chloro-4-(2-hydroxypropan-2-yl)phenyl)sulfonyl)-2-(4-fluoro-2-isopropyl-6-(2-methoxypyridin-4-yl)phenyl)acetamide], the IC50 is reported as ≤ 0.5 µM. In the case of `COc1cc(-c2cc(F)cc(C(C)C)c2CC(=O)NS(=O)(=O)c2cccc(Cl)c2)ccn1` [Example 5], the IC50 is reported as ≤ 1 µM. With `COc1cc(-c2cc(F)cc(C(C)C)c2CC(=O)NS(=O)(=O)c2ccc(C(=O)N(C)C)c(Cl)c2)ccn1` [Example 96, 2-Chloro-4-(N-(2-(4-fluoro-2-isopropyl-6-(2-methoxypyridin-4-yl)phenyl)acetyl)sulfamoyl)-N,N-dimethylbenzamide] the IC50 was ≤ 10 µM. For `COc1cc(-c2cc(F)cc(C(C)C)c2CC(=O)NS(=O)(=O)c2ccc(Cl)cc2F)ccn1` [Example 4], the IC50 was ≤ 1 µM. `CC(C)c1cc(F)cc(-c2cccnc2)c1CC(=O)NS(=O)(=O)c1ccc(Cl)cc1` [Example 17] was tested, and the IC50 was ≤ 5 µM. In the case of `COc1cc(-c2cc(F)cc(C(C)C)c2CC(=O)NS(=O)(=O)c2cnn(C)c2)ccn1` [Example 42, 2-(4-Fluoro-2-isopropyl-6-(2-methoxypyridin-4-yl)phenyl)-N-((1-methyl-1H-pyrazol-4-yl)sulfonyl)acetamide], the IC50 is reported as ≤ 10 µM. In the case of `COc1cc(-c2cc(F)cc(C(C)C)c2CC(=O)NS(=O)(=O)c2cnc(N(C)C)cc2C)ccn1` [Example 162], the IC50 is reported as ≤ 5 µM. With `COc1cc(-c2cc(F)cc(C(C)C)c2CC(=O)NS(=O)(=O)c2cc(C(C)(C)O)nn2C)ccn1` [Example 160] the IC50 was ≤ 5 µM. For `COc1ccncc1-c1cc(F)cc(C(C)C)c1CC(=O)NS(=O)(=O)c1cc(C(C)C)c(F)cc1F` [Example 203], the IC50 was ≤ 0.5 µM. For `COc1cc(-c2cc(F)cc(C(C)C)c2CC(=O)NS(=O)(=O)c2cc(N(C)C)ccc2C)ccn1` [Example 153], the IC50 was ≤ 5 µM. With `CNC(=O)c1ccc(S(=O)(=O)NC(=O)Cc2c(-c3ccnc(OC)c3)cc(F)cc2C(C)C)c(C)c1` [Example 182] the IC50 was ≤ 10 µM. `COc1cc(-c2cc(F)cc(C(C)C)c2CC(=O)NS(=O)(=O)c2ccc(=O)n(C(C)C)c2)ccn1` [Example 2, 2-(4-Fluoro-2-isopropyl-6-(2-methoxypyridin-4-yl)phenyl)-N-((1-isopropyl-6-oxo-,6-dihydropyridin-3-yl)sulfonyl)acetamide, potassium salt] was tested, and the IC50 was ≤ 5 µM. With `COc1cc(-c2cc(F)cc(C(C)C)c2CC(=O)NS(=O)(=O)c2ccccc2Cl)ccn1` [Example 7] the IC50 was ≤ 5 µM. With `COc1cc(-c2cc(F)cc(C(C)C)c2CC(=O)NS(=O)(=O)c2ccc(Br)cc2C)ccn1` [Example 129] the IC50 was ≤ 1 µM. For `CCN(CC)CCCS(=O)(=O)NC(=O)Cc1c(-c2ccnc(OC)c2)ccc2c1CCC2` [Example 56, N-((3-(Diethylamino)propyl)sulfonyl)-2-(5-(2-methoxypyridin-4-yl)-2,3-dihydro-1H-inden-4-yl)acetamide], the IC50 was ≤ 10 µM. `COc1cc(-c2cc(F)cc(C(C)C)c2CC(=O)NS(=O)(=O)c2ccc3c(c2)CCC3)ccn1` [Example 123] was tested, and the IC50 was ≤ 0.5 µM. `COc1cc(-c2cc(F)cc(C(C)C)c2CC(=O)NS(=O)(=O)c2ccc(Cl)c(C(F)(F)F)c2)ccn1` [Example 141] was tested, and the IC50 was ≤ 1 µM. With `COc1cc(-c2cc(F)cc(C(C)C)c2CC(=O)NS(=O)(=O)c2nc(C)cc(C)n2)ccn1` [Example 188] the IC50 was ≤ 10 µM. With `COc1cc(-c2cc(F)cc(C(C)C)c2CC(=O)NS(=O)(=O)c2ccc3c(c2)COC3)ccn1` [Example 124] the IC50 was ≤ 0.5 µM. For `COc1cc(-c2cc(F)cc(C(C)C)c2CC(=O)NS(=O)(=O)c2ccc(C)c(F)c2)ccn1` [Example 125], the IC50 was ≤ 0.5 µM. `COc1cc(-c2cc(F)cc(C(C)C)c2CC(=O)NS(=O)(=O)c2ccc(/C(C)=N\O)cc2)ccn1` [Example 132] was tested, and the IC50 was ≤ 5 µM. For `COc1cc(-c2cc(F)cc(C(C)C)c2CC(=O)NS(=O)(=O)c2ccc(F)c(C#N)c2)ccn1` [Example 34, N-((3-Cyano-4-fluorophenyl)sulfonyl)-2-(4-fluoro-2-isopropyl-6-(2-methoxypyridin-4-yl)phenyl)acetamide], the IC50 was ≤ 10 µM. For `CCOC(=O)c1cc(S(=O)(=O)NC(=O)Cc2c(-c3ccnc(OC)c3)cc(F)cc2C(C)C)nn1C` [Example 28, Ethyl 3-(N-(2-(4-fluoro-2-isopropyl-6-(2-methoxypyridin-4-yl)phenyl)acetyl)sulfamoyl)-1-methyl-1H-pyrazole-5-carboxylate], the IC50 was ≤ 5 µM. With `COc1cc(-c2ccc3c(c2CC(=O)NS(=O)(=O)c2ncc(C(C)(C)O)s2)CCC3)ccn1` [Example 105, N-((5-(2-Hydroxypropan-2-yl)thiazol-2-yl)sulfonyl)-2-(5-(2-methoxypyridin-4-yl)-2,3-dihydro-1H-inden-4-yl)acetamide] the IC50 was ≤ 10 µM. For `COc1cc(-c2cc(F)cc(C(C)C)c2CC(=O)NS(=O)(=O)c2cc(C(C)(C)O)co2)ccn1` [Example 40, 2-(4-Fluoro-2-isopropyl-6-(2-methoxypyridin-4-yl)phenyl)-N-((4-(2-hydroxypropan-2-yl)furan-2-yl)sulfonyl)acetamide], the IC50 was ≤ 0.5 µM. In the case of `COc1cc(-c2cc(F)cc(C(C)C)c2CC(=O)NS(=O)(=O)c2ccc(F)c(C(C)(C)O)c2)ccn1` [Example 79, 2-(4-Fluoro-2-isopropyl-6-(2-methoxypyridin-4-yl)phenyl)-N-((4-fluoro-3-(2-hydroxypropan-2-yl)phenyl)sulfonyl)acetamide], the IC50 is reported as ≤ 1 µM. In the case of `CC(C)c1cc(F)cc(-c2cccnc2)c1CC(=O)NS(=O)(=O)c1cc(C(C)(C)O)cs1` [Example 25, 2-(4-Fluoro-2-isopropyl-6-(pyridin-3-yl)phenyl)-N-((4-(2-hydroxypropan-2-yl)thiophen-2-yl)sulfonyl)acetamide], the IC50 is reported as ≤ 0.5 µM. `COc1cc(-c2cc(F)cc(C(C)C)c2CC(=O)NS(=O)(=O)c2ccc(C)cc2F)ccn1` [Example 120] was tested, and the IC50 was ≤ 1 µM. With `COc1cc(-c2cc(F)cc(C(C)C)c2CC(=O)NS(=O)(=O)c2ccc(-c3cnco3)s2)ccn1` [Example 127] the IC50 was ≤ 5 µM. `COc1cc(-c2cc(F)cc(C(C)C)c2CC(=O)NS(=O)(=O)c2cnc3c(c2)c(C)nn3C)ccn1` [Example 94, N-((1,3-Dimethyl-1H-pyrazolo[3,4-b]pyridin-5-yl)sulfonyl)-2-(4-fluoro-2-isopropyl-6-(2-methoxypyridin-4-yl)phenyl)acetamide] was tested, and the IC50 was ≤ 1 µM. In the case of `COc1cc(-c2cc(F)cc(C(C)C)c2CC(=O)NS(=O)(=O)c2ccc(C(=O)N(C)C)cc2C)ccn1` [Example 15], the IC50 is reported as ≤ 5 µM. In the case of `CCC(O)(CC)c1cc(S(=O)(=O)NC(=O)Cc2c(-c3ccnc(OC)c3)cc(F)cc2C(C)C)sc1C` [Example 199], the IC50 is reported as ≤ 0.5 µM. With `CCC(C)(O)c1ccc(S(=O)(=O)NC(=O)Cc2c(-c3ccnc(OC)c3)cc(F)cc2C(C)C)cc1F` (stereo not shown) [Example 179] the IC50 was ≤ 0.5 µM. `CC(C)c1cc(F)cc(-c2cccnc2)c1CC(=O)NS(=O)(=O)c1cnc(C(C)(C)O)s1` [Example 142] was tested, and the IC50 was ≤ 1 µM. With `Cc1cc(C(C)(C)O)ccc1S(=O)(=O)NC(=O)Cc1c(-c2ccnc(C#N)c2)ccc2c1CCC2` [Example 189] the IC50 was ≤ 0.5 µM. For `COc1cc(-c2cc(F)cc(C(C)C)c2CC(=O)NS(=O)(=O)c2ccc(NC(C)=O)cc2)ccn1` [Example 95, N-((4-Acetamidophenyl)sulfonyl)-2-(4-fluoro-2-isopropyl-6-(2-methoxypyridin-4-yl)phenyl)acetamide], the IC50 was ≤ 10 µM. `COC(=O)c1ccc(S(=O)(=O)NC(=O)Cc2c(-c3ccnc(OC)c3)cc(F)cc2C(C)C)c(C)c1` [Example 39, Methyl 4-(N-(2-(4-fluoro-2-isopropyl-6-(2-methoxypyridin-4-yl)phenyl)acetyl)sulfamoyl)-3-methylbenzoate] was tested, and the IC50 was ≤ 10 µM. In the case of `COc1cc(-c2cc(F)cc(C(C)C)c2CC(=O)NS(=O)(=O)c2cc(C(C)C)ccc2C)ccn1` [Example 206], the IC50 is reported as ≤ 0.5 µM. For `COc1cc(-c2cc(F)cc(C(C)C)c2CC(=O)NS(=O)(=O)c2ccc(CN(C)C)cc2)ccn1` [Example 31, N-((4-((Dimethylamino)methyl)phenyl)sulfonyl)-2-(4-fluoro-2-isopropyl-6-(2-methoxypyridin-4-yl)phenyl)acetamide, potassium salt], the IC50 was ≤ 5 µM.

— patent publication US12030879B2, “Sulfonyl acetamides as NLRP3 inhibitors” (Inflazome Limited, priority 2018, dated 2024)
